According to patent publication US11382880B2, “Method for improving digestive health” (Brightseed, Inc., priority 2019, dated 2022):
Blank lines part the entries; values can stand above or below the compound they belong to.

What was measured:
HNF4α [1] = target: T1, HNF4α (Homo sapiens, UniProt P41235); set-up: endogenous in cells; host or cells: T6PNE engineered pancreatic cells; settings: Lee, et al. (2013); cited from earlier work
T1 sequence (P41235 1-474): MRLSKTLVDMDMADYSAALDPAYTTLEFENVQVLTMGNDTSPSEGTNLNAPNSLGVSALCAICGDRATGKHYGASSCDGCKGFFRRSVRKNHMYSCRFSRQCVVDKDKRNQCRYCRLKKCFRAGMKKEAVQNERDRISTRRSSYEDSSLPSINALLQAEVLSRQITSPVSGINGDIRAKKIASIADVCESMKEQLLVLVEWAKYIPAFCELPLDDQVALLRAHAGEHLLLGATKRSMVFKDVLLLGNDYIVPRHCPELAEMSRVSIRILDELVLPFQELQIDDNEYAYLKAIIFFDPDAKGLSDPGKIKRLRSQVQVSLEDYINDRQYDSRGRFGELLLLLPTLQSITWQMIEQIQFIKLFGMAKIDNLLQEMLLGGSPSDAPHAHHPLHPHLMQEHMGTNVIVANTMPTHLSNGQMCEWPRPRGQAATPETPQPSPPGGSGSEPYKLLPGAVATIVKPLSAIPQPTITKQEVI

HNF4α [2] = target: T1, HNF4α; test: Insulin promoter-reporter assay measuring HNF4α activity (T6PNE engineered pancreatic cell); assay type: cell-based; set-up: endogenous in cells; host or cells: T6PNE engineered pancreatic cells; settings: for HNF4α modulator activity in screening: screening of predicted plant compounds in the HNF4α assay
Method: FIG. 1 illustrates a dose-response analysis of N-trans-caffeoyltyramine, N-trans-feruloyltyramine and p-coumaroyltyramine in an assay measuring insulin promoter activity. Dimethylsulfoxide (DMSO) and alverine (20 μM) were used as negative and positive controls, respectively.
The tyramine containing hydroxycinnamic acid amide of this disclosure are analogs of lead compounds identified in traditional screening assays for agents that modulate known signaling pathways. […] While not wishing to be bound by theory, it is believed that the tyramine containing hydroxycinnamic acid amides of this disclosure increase HNF4α activity as a result of higher affinity for the HNF4α binding site than the natural ligand, palmitic acid, which down regulates HNF4α activity. Accordingly, by increasing HNF4α activity, the compounds of this disclosure are of use in improving heal thy digestive function, thereby addressing the underlying pathogenesis of gastrointestinal disorders such as IBD, UC, and CD. Using the composition of this disclosure, health and well-being are improved and promoted.
Given the role of HNF4α in maintaining a healthy metabolism in humans, test compounds were screened for activity as HNF4α agonists (either direct or indirect effects). Using a known insulin promoter-reporter assay, Kiselyuk and colleagues (2010. J. Biomol. Screen 15(6): 663-70), screened a library of compounds for activity to promote insulin activation. […] The OTC promoter is known to be responsive to HNF4α in transient transfection assays (Inoue, et al. (2002) J. Biol. Chem. 277:25257-65).
Plant compounds in the top 10th percentile of similarity to the 18 target structures were selected and compounds predicted to be potential agonists of HNF4α activity given their chemical structural features were screened in the HNF4α assay. […] Due to hydroxyl derivatization of both phenyl rings, N-transcaffeoyltyramine is less lipophilic and therefore expected to be more bioavailable.

HNF4α mRNA = HNF4α mRNA levels by quantitative PCR; assay type: cell-based; settings: FIG. 2
Method: FIG. 2 illustrates the effect of N-trans-caffeoyltyramine, N-trans-feruloyltyramine and p-coumaroyltyramine on HNF4α mRNA levels as determined by quantitative PCR. DMSO and alverine (20 μM) were used as negative and positive controls, respectively.
Expression of Insulin and HNF4α. RNA was purified using a RNEASY® chromatographic separation and isolation kits (Qiagen), and converted to cDNA using the gScript™ cDNA SuperMix (Quanta Biosciences). Q-PCR was conducted with cDNA corresponding to 2 μg of RNA using an Optic on Real-Time System (MJ Research) and QPCR SuperMix (BioPioneer). See All mRNA values were normalized to 18S rRNA values and are expressed as fold changes over vehicle-treated control.

pH Stability Assessment = assay type: physicochemical; settings: pH 2, 7.4, 8.5 and 10; 37° C.; 0.5 and 72 hours; HPLC peak area at 280 nm
Method: pH Stability Assessment. Individual stock solutions were prepared in DMSO at concentrations of 10 mg/mL. Four different buffer solutions were prepared to achieve solutions with a pH of 2, 7.4, 8.5 and 10. For each pH assay, 5 μL of stock solution was added to 245 μL of buffered solution to a 2 mL tube, vortexed and incubated in a 37° C. water bath. At each timepoint, 50 μL aliquots were taken, neutralized and analyzed via HPLC analysis using a DAD detector at 280 nm. The fold change of the peak area at 280 nm was analyzed for the initial and final timepoint, 0.5 and 72 hours, respectively.

[3] = Bioavailability determination in male C57BL/6 mice; assay type: in vivo; settings: mouse, whole blood, IV 2.0 mg/kg, oral 30.0 mg/kg, IP 30 mg/kg, route of the printed value not stated
Method: Bioavailability Determinations. Male C57BL/6 mice were administered N-trans-caffeoyl tyramine or N-transferuloyl tyramine via IV, intraperitoneal or oral route (three mice for each route) (Table 2).
A blood sample from each mouse was drawn at 0.25, 0.5, 1, 2, 4, 6 and 24 hours after administration. An 8 μL aliquot of blood was used for analysis. After adding 200 μL of an internal standard comprising 100 ng/mL Labetalol, 100 ng/mL dexamethasone, 100 ng/mL tolbutamide, 100 ng/mL Verapamil, 100 ng/mL Glyburide, and 100 ng/mL Celecoxib in ACN, the mixture was vortex-mixed and centrifuged at 12000 rpm for 15 minutes at 4° C. to pellet precipitated protein. Four μL of the supernatant was injected for LC-MS/MS analysis. Bioavailability (%) was calculated using AUC0-inf (% AUCExtra<20%) or AUC0-last(% AUCExtra>20%) with nominal dose.

CaCo-2 cells = test: TNF-α induced tight junction damage in CaCo-2 monolayer, ZO-1 staining; assay type: cell-based; settings: 200 ng or 300 ng TNF-α
Method: TNF-α is an inflammatory cytokine that increases intestinal tight junction permeability. To analyze the effect of N-trans-caffeoyltyramine on tight junctions, 200 ng or 300 ng TNF-α was added to a monolayer of epithelial CaCo-2 cells to induced tight junction damage. After TNF-α exposure, N-trans-caffeoyltyramine was added and tight junction formation was determined by antibody staining for zonula occludens (ZO) −1. […] The CaCo-2 cells was sorted for high TNF-α expression with compromised integrity of tight junctions. Increasing concentration of exogenous TNF-α from 200 ng to 300 ng reduced ZO-1 staining.

HNF4α [4] = test: Intestinal HNF4α expression in C57BL/6 mice after IP dosing; assay type: in vivo; settings: IP twice a day for 14 days
Method: Primary Antibodies. HNF4α antibodies were used (#sc-6556, Santa Cruz Biotechnology; Santa Cruz, Calif. and #3113, Cell Signaling Technology; Danvers, Mass.). For fluorescent imaging, samples were incubated with ALEXA FLUOR® 488 green-fluorescent dye or Rhodamine labeled anti-mouse, rabbit or goat and nuclei were counterstained with DAPI (4′,6-diamidino-2-phenylindole). […] were analyzed with a conventional inverted microscope (Olympus, PlanFl 40×/0.60) or with a confocal microscope equipped with a krypton/argon laser.
To confirm the in vivo […] samples were harvested and stained to visualize HNFα expression, ZO-1 and DAPI staining.

HNF4α [5] = test: HNF4α expression in the intestine of DIO mice; assay type: in vivo; settings: villi and crypt
Source text: FIG. 4 illustrates HNF4α is increased in the intestine of DIO mice treated with NCT.
(§1) Intestine from mice treated with DMSO or N-trans-caffeoyltyramine were examined histologically. Gross morphological appearance was unchanged. […] In both, HNF4α was highly expressed in the crypt, with much less being detectable in the villi (see FIG. 4). […] Paneth cells are specialized secretory cells that play a critical role in defenses against intestinal microbes. To that end, they secrete a variety of antimicrobial peptides. Of note, Paneth cells play an important role in IBD pathogenesis. High fat diet has been reported to reduce the number of Paneth cells, and our studies reproduced that finding (see FIG. 4), but the mechanism by which that occurs has not been understood.

Paneth cells = test: Number of Paneth cells in the intestine of DIO mice; assay type: in vivo; settings: DIO mice (high fat diet)
Source text: FIG. 5 illustrates paneth cells are increased in the intestine of DIO mice treated with NCT.
as §1

Intestine = test: Histological examination of intestine, gross morphology; assay type: in vivo; settings: mice treated with DMSO or N-trans-caffeoyltyramine
Source text: as §1

HNF4α [6] = target: T1, HNF4α; settings: cited from earlier work
HNF4α [7] = target: T1, HNF4α; set-up: endogenous in cells; host or cells: T6PNE engineered pancreatic cells; settings: Kiselyuk, et al. (2012); cited from earlier work

Structure (SMILES): CCN(CCCc1ccccc1)CCCc1ccccc1 [Alverine]
Activity as HNF4α activators (HNF4α [1]): activity as HNF4α activators

Structure (SMILES): CC(Cc1cccc(C(F)(F)F)c1)NCCOC(=O)c1ccccc1 (stereo not shown) [Benfluorex]
Activity as HNF4α activators (HNF4α [1]): activity as HNF4α activators

HNF4α modulator activity in screening (HNF4α [2]): able to act as HNF4α modulators
Structure (SMILES): O=C(/C=C\c1ccc(O)c(O)c1)NCCc1ccc(O)cc1 [N-cis-caffeoyltyramine]

Structure (SMILES): O=C(/C=C/c1ccc(O)cc1)NCCc1ccc(O)c(O)c1 [N-coumaroyldopamine]
HNF4α gene expression (quantitative PCR) (HNF4α mRNA): inactive

pH Stability (pH Stability Assessment): Acid Stable
bioavailability [3]: ~11%
Gross morphological appearance of intestine (Intestine): unchanged
HNF4α modulator activity in screening (HNF4α [2]): able to act as HNF4α modulators
Structure (SMILES): O=C(/C=C/c1ccc(O)c(O)c1)NCCc1ccc(O)cc1 [N-trans-caffeoyltyramine]
HNF4α gene expression (quantitative PCR) (HNF4α mRNA): upregulated
Effect on TNF-α reduced ZO-1 staining (tight junctions) (CaCo-2 cells): reversed the effects of TNF-α on ZO-1
HNF4α expression in intestinal lining (HNF4α [4]): induced HNF4α expression in the intestinal lining
HNF4α expression in intestine (HNF4α [5]): large increase in HNF4α expression throughout
HNF4α expression in intestine (HNF4α [5]; listed as NCT): increased
Number of Paneth cells (Paneth cells): complete recovery in the number of Paneth cells
Number of Paneth cells (Paneth cells; listed as NCT): increased
Potency in activating HNF4α compared with Alverine (HNF4α [2]; FIG. 1, alverine 20 μM positive control): roughly an order-of-magnitude more potent than Alverine

Structure (SMILES): COc1cc(/C=C/C(=O)NCC(O)c2ccc(O)cc2)ccc1O (stereo not drawn) [N-trans-feruloyloctopamine]
HNF4α gene expression (quantitative PCR) (HNF4α mRNA): inactive

pH Stability (pH Stability Assessment): Stable
bioavailability [3]: ~7%
HNF4α modulator activity in screening (HNF4α [2]): able to act as HNF4α modulators
Structure (SMILES): COc1cc(/C=C/C(=O)NCCc2ccc(O)cc2)ccc1O [N-trans-feruloyltyramine]
HNF4α gene expression (quantitative PCR) (HNF4α mRNA): upregulated

Structure (SMILES): COc1cc(/C=C\C(=O)NCCc2ccc(O)cc2)ccc1O [cis-feruloyltyramine]
HNF4α gene expression (quantitative PCR) (HNF4α mRNA): inactive

Structure (SMILES): CCN(CCCCc1ccccc1)CCc1ccccc1 [compound 1]
HNF4α agonistic activity in OTC promoter assay (HNF4α [6]): HNF4α agonistic activity
Insulin activation in insulin promoter-reporter screen (HNF4α [7]): insulin activator

Structure (SMILES): O=C(/C=C/c1ccc(O)cc1)NCCc1ccc(O)cc1 [p-coumaroyltyramine]
HNF4α gene expression (quantitative PCR) (HNF4α mRNA): upregulated
pH Stability (pH Stability Assessment): Acid Stable
HNF4α modulator activity in screening (HNF4α [2]): able to act as HNF4α modulators

Structure (SMILES): O=C(/C=C/c1ccc(O)cc1)NCC(O)c1ccc(O)cc1 (stereo not shown) [pcoumaroyloctopamine]
HNF4α gene expression (quantitative PCR) (HNF4α mRNA): inactive
